Test results as given in patent publication US20060045953A1 (priority 2004, published 2006).
pEC50: −log10 of the molar value. Where two headings read alike, the source gives them in different places.

Target: T1, hT1R1/hT1R3 umami receptor (Homo sapiens, UniProt Q7RTX0+Q7RTX1)
T1 construct: expressed in transfected cells; host or cells: HEK293 derivative stably expressing Gα15, clone I-17, expression induced with mifepristone
T1 sequence (Q7RTX1 21-841): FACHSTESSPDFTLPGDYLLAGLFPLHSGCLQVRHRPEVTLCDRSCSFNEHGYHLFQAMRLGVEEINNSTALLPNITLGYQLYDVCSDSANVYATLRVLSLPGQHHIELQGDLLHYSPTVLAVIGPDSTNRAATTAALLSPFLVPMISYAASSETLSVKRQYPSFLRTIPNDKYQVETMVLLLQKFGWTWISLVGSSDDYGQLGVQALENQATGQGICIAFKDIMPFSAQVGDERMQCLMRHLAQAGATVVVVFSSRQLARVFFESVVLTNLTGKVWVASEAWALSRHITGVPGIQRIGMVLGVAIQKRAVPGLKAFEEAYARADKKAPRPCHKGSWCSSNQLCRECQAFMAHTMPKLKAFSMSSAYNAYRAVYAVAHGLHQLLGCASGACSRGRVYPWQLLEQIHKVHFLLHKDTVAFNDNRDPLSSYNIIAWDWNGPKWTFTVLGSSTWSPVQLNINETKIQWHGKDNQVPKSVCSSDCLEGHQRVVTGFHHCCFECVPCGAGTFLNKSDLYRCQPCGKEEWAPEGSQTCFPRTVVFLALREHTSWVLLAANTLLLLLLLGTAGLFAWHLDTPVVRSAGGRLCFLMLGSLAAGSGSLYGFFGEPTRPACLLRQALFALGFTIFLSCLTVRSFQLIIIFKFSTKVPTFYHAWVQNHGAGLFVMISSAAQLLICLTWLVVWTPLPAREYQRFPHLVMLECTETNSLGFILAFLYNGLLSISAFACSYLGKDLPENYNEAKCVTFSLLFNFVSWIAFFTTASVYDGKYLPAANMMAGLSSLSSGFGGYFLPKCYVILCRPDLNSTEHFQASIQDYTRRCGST
T1 sequence (Q7RTX0 21-852): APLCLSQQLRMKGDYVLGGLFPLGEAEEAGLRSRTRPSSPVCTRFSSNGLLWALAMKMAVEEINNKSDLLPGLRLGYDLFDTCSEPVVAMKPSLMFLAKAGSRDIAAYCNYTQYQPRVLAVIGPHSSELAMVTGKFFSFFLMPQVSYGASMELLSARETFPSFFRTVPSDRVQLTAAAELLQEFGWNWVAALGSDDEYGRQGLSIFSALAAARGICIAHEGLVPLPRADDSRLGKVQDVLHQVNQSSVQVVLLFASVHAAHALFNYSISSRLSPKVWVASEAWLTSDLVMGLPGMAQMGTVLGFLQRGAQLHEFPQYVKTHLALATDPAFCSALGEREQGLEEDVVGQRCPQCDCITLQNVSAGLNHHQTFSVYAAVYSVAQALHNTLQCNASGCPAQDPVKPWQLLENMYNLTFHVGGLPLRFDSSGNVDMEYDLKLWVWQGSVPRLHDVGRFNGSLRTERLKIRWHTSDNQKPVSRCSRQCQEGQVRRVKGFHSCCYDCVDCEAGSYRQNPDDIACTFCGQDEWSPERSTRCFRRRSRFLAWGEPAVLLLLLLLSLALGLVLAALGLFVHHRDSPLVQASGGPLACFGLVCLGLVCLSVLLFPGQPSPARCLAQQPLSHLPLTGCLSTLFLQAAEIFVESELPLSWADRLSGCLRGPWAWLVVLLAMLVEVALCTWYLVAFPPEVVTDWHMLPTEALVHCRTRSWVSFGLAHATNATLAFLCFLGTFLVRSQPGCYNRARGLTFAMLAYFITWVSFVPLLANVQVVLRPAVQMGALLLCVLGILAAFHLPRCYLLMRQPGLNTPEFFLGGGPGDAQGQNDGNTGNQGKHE
Assay: In vitro hT1R1/hT1R3 umami taste receptor activation assay (FLIPR, dose response)
Type: cell-based
Source text: In order to identify new savory flavoring agents and enhancers, including compounds with savory agonist and enhancer activities (dual activity), the compounds of Formula (I) were screened in primary assays and secondary assays including compound dose response and enhancement assay. In a primary assay for potential ability to modulate umami taste, amide compounds of Formula (I) that can be either savory flavoring agents in their own right or flavor enhancers of MSG are identified and scores of their activities are given as percentage of the maximum MSG intensity (%). In compound dose response, an EC50 is calculated to reflect the potency of the compound as a savory agonist or enhancer.
An HEK293 cell line derivative (See e.g., Chandrashekar, et al., Cell (2000) 100: 703-711) which stably expresses Gα15 and hT1R1/hT1R3 under an inducible promoter (see WO 03/001876 A2) was used to identify compounds with savory tasting properties.
For dose-responses analysis, stimuli were presented in duplicates at 10 different concentrations ranging from 1.5 nM to 30 μM. Activities were normalized to the response obtained with 60 mM monosodium glutamate, a concentration that elicits maximum receptor response. […] Identical results were obtained when analyzing the dose-response data using commercially available software for non-linear regression analysis such as GraphPad PRISM (San Diego, Calif.).

[1] = Table D, Umami Acrylamides, read-out: Umami EC50
[2] = Table A, Umami Amides, read-out: Umami EC50
[3] = read-out: EC50 for activation of a hT1R1/hT1R3 umami receptor expressed in an HEK293 cell line
[4] = opposite enantiomers compared, read-out: AFFINITY FOR T1R1/T1R3 SAVORY RECEPTOR EC50 UM
[5] = Table C, Umami Ureas, read-out: Umami EC50

CCCC(CCC)NC(=O)/C=C/c1cccs1 [Example D6, N-(1-Propyl-butyl)-3-thiophen-2-yl-acrylamide]
pEC50 [1]: 6.12

COc1cccc(C(=O)N[C@@H]2CCCc3ccccc32)c1N [Example A108, (R)-2-amino-3-methoxy-N-(1,2,3,4-tetrahydronaplithalen-1-yl)benzamide]
pEC50 [2]: 7.05

CCC(CC)NC(=O)/C=C/c1ccc(OC)cc1 [Example D7, (E)-3-(4-methoxyphenyl)-N-(pentan-3-yl)acrylamide]
pEC50 [1]: 6.09

CCCC(CC(C)C)NC(=O)c1cc2cc(OC)ccc2o1 (stereo not drawn) [Example A18, 5-methoxy-N-(2-methylheptan-4-yl)benzofuran-2-carboxamide]
pEC50 [2]: 5.90

CCOC(=O)[C@@H]1CCCC[C@H]1NC(=O)c1cc2cc(OC)ccc2o1 [Example A15, (1R,2R)-ethyl 2-(5-methoxybenzofuran-2-carboxamido)cyclohexanecarboxylate]
pEC50 [2]: 5.94

CCCC(CCC)NC(=O)c1ccc(OC)cc1C#N [Example 97, 2-cyano-N-(heptan-4-yl)-4-methoxybenzamide]
pEC50 [3]: 5.86

CCCC(CCC)NC(=O)c1ccc2c(c1)OCCO2 [Example 23, 2,3-Dihydro-benzo[1,4]dioxine-6-carboxylic acid (1-propyl-butyl)-amide]
pEC50 [3]: 6.31

O=C(N[C@H]1CCOc2ccccc21)c1cccc(Cl)c1O [Example A115, (s)-3-chloro-N-(chroman-4-yl)-2-hydroxybenzamide]
pEC50 [2]: 5.30

CCCC(CCC)NC(=O)c1ccc(OC)nc1 [Example 94, N-(heptan-4-yl)-6-methoxynicotinamide]
pEC50 [3]: 5.58

CCCC(NC(=O)c1ccc2c(c1)OCO2)c1ccc(OC)cc1 (stereo not drawn) [Example 115, Benzo[1,3]dioxole-5-carboxylic acid [1-(4-methoxy-phenyl)-butyl]-amide]
pEC50 [3]: 5.39

COc1cccc(C(=O)N[C@@H]2CCCc3ccccc32)c1N [drawing 29, (R)-2-amino-3-methoxy-N-(1,2,3,4-tetrahydronaphthalen-1-yl)benzamide]
pEC50 [4]: 7.05

COc1cccc(CNC(=O)C(=O)NCCc2ccccn2)c1OC [Example 146, N-(2,3-Dimethoxybenzyl)-N′-(2-(pyridin-2-yl)ethyl)oxalamide]
pEC50 [3]: 6.16

COc1ccc(CNC(=O)c2ccccc2-n2cccc2)c(OC)c1 [Example 121, N-(2,4-dimethoxybenzyl)-2-(1H-pyrrol-1-yl)benzamide]
pEC50 [3]: 5.78

CCCC(CCC)NC(=O)c1ccc(OC)c([N+](=O)[O-])c1 [Example A120, N-(heptan-4-yl)-4-methoxy-3-nitrobenzamide]
pEC50 [2]: 7.10

COc1ccc(C(=O)N[C@H]2CCc3ccccc32)cc1C [drawing 26, (S)-N-(2,3-dihydro-1H-inden-1-yl)-4-methoxy-3-methylbeuzamide]
pEC50 [4]: 7.10

Cc1cc(C(=O)NC2CCCCC2C)oc1C (stereo not drawn) [Example A33, 4,5-dimethyl-N-(2-methylcyclohexyl)furan-2-carboxamide]
pEC50 [2]: 5.88

CCCC(CCC)NC(=O)c1ccc(OC)c(OC)c1 [Example 65, 3,4-Dimethoxy-N-(1-propyl-butyl)-benzamide]
pEC50 [3]: 6.44

COc1ccc(CNC(=O)c2ccncc2-n2cccc2)c(OC)c1 [Example A66, N-(2,4-dimethoxybenzyl)-3-(1H-pyrrol-1-yl)isonicotinamide]
pEC50 [2]: 6.54

O=C(NCc1ccc(OC(F)(F)F)cc1)c1cccs1 [Example 105, N-(4-(trifluoromethoxy)benzyl)thiophene-2-carboxamide]
pEC50 [3]: 5.62

COC(=O)[C@@H](CC(C)C)NC(=O)c1ccc(SC)cc1 [Example 50, (R)-methyl 4-methyl-2-(4-(methylthio)benzamido)pentanoate]
pEC50 [3]: 6.80

CC(CCc1ccccc1)NC(=O)c1ccc2c(c1)OCO2 (stereo not drawn) [Example A48]
pEC50 [2]: 5.82

CCCC(CCC)NC(=O)c1ccc2c(c1)OCCCO2 [Example 24, N-(heptan-4-yl)-3,4-dihydro-2H-benzo[b][1,4]dioxepine-7-carboxamide]
pEC50 [3]: 5.19

COc1ccc2c(c1)CCC2NC(=O)c1ccc(OC)c(C)c1 (racemic) [Example 121-2, (R/S)-4-Methoxy-N-(5-methoxy-2,3-dihydro-1H-inden-1-yl)-3-methylbenzamide]
pEC50 [3]: 7.10

CCCC(CCC)NC(=O)c1ccc(OC)c(F)c1 [Example A74, 3-fluoro-N-(heptan-4-yl)-4-methoxybenzamide]
pEC50 [2]: 6.46

COc1ccc(C(=O)NC2CCc3ccccc32)cc1Cl (stereo not drawn) [Example A106, 3-chloro-N-(2,3-dihydro-1H-inden-1-yl)-4-methoxybenzamide]
pEC50 [2]: 5.86

CCCC(CC)NC(=O)c1cc2cc(C)ccc2o1 (stereo not drawn) [Example 28, N-(hexan-3-yl)-5-methylbenzofuran-2-carboxamide]
pEC50 [3]: 6.13

COc1ccc(CNC(=O)c2ccc(-c3ccccn3)s2)c(OC)c1 [Example 109, 5-Pyridin-2-yl-thiophene-2-carboxylic acid 2,4-dimethoxy-benzylamide]
pEC50 [3]: 5.54

COc1ccccc1NC(=O)NC(C(C)C)C(C)C [Example C17, 1-(2,4-dimethylpentan-3-yl)-3-(2-methoxyphenyl)urea]
pEC50 [5]: 6.62

CCCC(CCC)NC(=O)c1cccc(SC)c1 [Example A118, N-(heptan-4-yl)-3-(methylthio)benzamide]
pEC50 [2]: 7.52

COc1cccc(C(=O)NC2CCCCC2C)c1N (stereo not drawn) [Example A125, 2-amino-3-methoxy-N-(2-methylcyclohexyl)benzamide]
pEC50 [2]: 7.70

CCOc1ccc(C(=O)NC(CC)CC)cc1C [Example A64, 4-ethoxy-3-methyl-N-(pentan-3-yl)benzamide]
pEC50 [2]: 6.59

CCOC(=O)[C@H]1CCCC[C@H]1NC(=O)c1ccc(OC)c(Cl)c1 [Example A103, (1S,2R)-ethyl 2-(3-chloro-4-methoxybenzamido)cyclohexanecarboxylate]
pEC50 [2]: 5.87

CCC(CC(C)C)NC(=O)c1cc2cc(OC)ccc2o1 (stereo not drawn) [Example 31, 5-methoxy-N-(5-methylhexan-3-yl)benzofuran-2-carboxamide]
pEC50 [3]: 5.98

CC(C)c1ccc(NC(=O)NCCc2ccccn2)cc1 [Example C6, 1-(4-isopropylphenyl)-3-(2-(pyridin-2-yl)ethyl)urea]
pEC50 [5]: 6.01

COC(=O)[C@@H](CC(C)C)NC(=O)/C=C/c1cccs1 [Example 83, 4-Methyl-2-(3-thiophen-2-yl-acryloylamino)-pentanoic acid methyl ester]
pEC50 [3]: 6.23

CCCC(NC(=O)c1ccc2c(c1)OCO2)C(=O)OC (stereo not drawn) [Example A49, 2-[(Benzo[1,3]dioxole-5-carbonyl)-amino]-pentanoic acid methyl ester]
pEC50 [2]: 5.81
